Assay results: PubChem BioAssay AID1963430 (Molecular Pharmacology Branch, DTP, NCI, 2024)
Values joined by “and” are separate entries in the source; they are usually repeats but may differ in a detail not shown here. Equal values may be shown once.

Tested on: 521955-158-R2-J5-PDC complex spheroid growth, % test/control
Experiment: Anticancer human tumor 521955-158-R2-J5-PDC patient-derived pancreatic carcinoma cell line growth inhibition [Asc]
Settings: for viability, T/C: stronger effect = lower value
Procedure, shortened: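 Concentration series start at each agent's clinical Cmax, or at 10 microM when none is established, and drop in half-log steps; agents are applied alone or together to complex spheroids built with HUVEC and hMSC.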

[1] = curve of first compound, second compound 0.01 µM
[2] = curve of first compound, second compound 0.0316 µM
[3] = curve of first compound, second compound 0.1 µM
[4] = curve of first compound, second compound 0.316 µM
[5] = curve of first compound, second compound 1 µM
[6] = second compound 0.01 µM, first compound 0.00316 µM
[7] = second compound 0.01 µM, first compound 0.01 µM
[8] = second compound 0.01 µM, first compound 0.0316 µM
[9] = second compound 0.01 µM, first compound 0.1 µM
[10] = second compound 0.0316 µM, first compound 0.00316 µM
[11] = second compound 0.0316 µM, first compound 0.01 µM
[12] = second compound 0.0316 µM, first compound 0.0316 µM
[13] = second compound 0.0316 µM, first compound 0.1 µM
[14] = second compound 0.1 µM, first compound 0.00316 µM
[15] = second compound 0.1 µM, first compound 0.01 µM
[16] = second compound 0.1 µM, first compound 0.0316 µM
[17] = second compound 0.1 µM, first compound 0.1 µM
[18] = second compound 0.316 µM, first compound 0.00316 µM
[19] = second compound 0.316 µM, first compound 0.01 µM
[20] = second compound 0.316 µM, first compound 0.0316 µM
[21] = second compound 0.316 µM, first compound 0.1 µM
[22] = second compound 1 µM, first compound 0.00316 µM
[23] = second compound 1 µM, first compound 0.01 µM
[24] = second compound 1 µM, first compound 0.0316 µM
[25] = second compound 1 µM, first compound 0.1 µM
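Also: spheroids exposed to agents for 7 days before readout.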
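For viability, T/C in this document: 100% = DMSO vehicle control viability.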

## CCN1CCN(Cc2ccc(Nc3ncc(F)c(-c4cc(F)c5nc(C)n(C(C)C)c5c4)n3)nc2)CC1 + CNC(C)C(=O)NC1CN(S(=O)(=O)c2cccc(S(=O)(=O)N3CCC4CCC(C(=O)NC(c5ccccc5)c5ccccc5)N4C(=O)C(NC(=O)C(C)NC)C3)c2)CCC2CCC(C(=O)NC(c3ccccc3)c3ccccc3)N2C1=O
[1]
  IC50: > 1000 nM
[2]
  IC50: > 1000 nM
[3]
  IC50: > 1000 nM
[4]
  IC50: > 1000 nM
[5]
  IC50: > 1000 nM
[6]
  viability, T/C: 89.3%
[7]
  viability, T/C: 85.6%
[8]
  viability, T/C: 71.2%
[9]
  viability, T/C: 61.6%
Second compound 0.01 µM, first compound 0.316 µM
  viability, T/C: 73.2%
Second compound 0.01 µM, first compound 1 µM
  viability, T/C: 94.8%
[10]
  viability, T/C: 87.8%
[11]
  viability, T/C: 106%
[12]
  viability, T/C: 82.5%
[13]
  viability, T/C: 84.1%
Second compound 0.0316 µM, first compound 0.316 µM
  viability, T/C: 83.6%
Second compound 0.0316 µM, first compound 1 µM
  viability, T/C: 102%
[14]
  viability, T/C: 97.6%
[15]
  viability, T/C: 91.7%
[16]
  viability, T/C: 76.6%
[17]
  viability, T/C: 76.9%
Second compound 0.1 µM, first compound 0.316 µM
  viability, T/C: 86.7%
Second compound 0.1 µM, first compound 1 µM
  viability, T/C: 96.8%
[18]
  viability, T/C: 76.3%
[19]
  viability, T/C: 76.8%
[20]
  viability, T/C: 83.5%
[21]
  viability, T/C: 66.6%
Second compound 0.316 µM, first compound 0.316 µM
  viability, T/C: 69.7%
Second compound 0.316 µM, first compound 1 µM
  viability, T/C: 105%
[22]
  viability, T/C: 95.5%
[23]
  viability, T/C: 85.1%
[24]
  viability, T/C: 64.8%
[25]
  viability, T/C: 57.7%
Second compound 1 µM, first compound 0.316 µM
  viability, T/C: 69.9%
Second compound 1 µM, first compound 1 µM
  viability, T/C: 103%

## NC1CCC(NC2CC2c2ccccc2)CC1 (configuration not stated)
Compound 0.000316 µM
  viability, T/C: 63.1% and 63.5% and 88.5%
Compound 0.001 µM
  viability, T/C: 57% and 64.8% and 83.1%
Compound 0.00316 µM
  viability, T/C: 52.8% and 60% and 75.8%
Compound 0.01 µM
  viability, T/C: 68.5% and 49.6% and 95%
Compound 0.0316 µM
  viability, T/C: 58.5% and 56.5% and 90.8%
Compound 0.1 µM
  viability, T/C: 60% and 61.9% and 74%
Curve of compound
  IC50: > 100 nM

## NC1CCC(NC2CC2c2ccccc2)CC1 (configuration not stated) + CNC(C)C(=O)NC1CN(S(=O)(=O)c2cccc(S(=O)(=O)N3CCC4CCC(C(=O)NC(c5ccccc5)c5ccccc5)N4C(=O)C(NC(=O)C(C)NC)C3)c2)CCC2CCC(C(=O)NC(c3ccccc3)c3ccccc3)N2C1=O
[1]
  IC50: > 100 nM
[2]
  IC50: > 100 nM
[3]
  IC50: > 100 nM
[4]
  IC50: > 100 nM
[5]
  IC50: > 100 nM
Second compound 0.01 µM, first compound 0.000316 µM
  viability, T/C: 79.9%
Second compound 0.01 µM, first compound 0.001 µM
  viability, T/C: 70.7%
[6]
  viability, T/C: 82.2%
[7]
  viability, T/C: 80.9%
[8]
  viability, T/C: 71.6%
[9]
  viability, T/C: 69.1%
Second compound 0.0316 µM, first compound 0.000316 µM
  viability, T/C: 88.5%
Second compound 0.0316 µM, first compound 0.001 µM
  viability, T/C: 81.4%
[10]
  viability, T/C: 61%
[11]
  viability, T/C: 79%
[12]
  viability, T/C: 72%
[13]
  viability, T/C: 64.8%
Second compound 0.1 µM, first compound 0.000316 µM
  viability, T/C: 66.5%
Second compound 0.1 µM, first compound 0.001 µM
  viability, T/C: 83.7%
[14]
  viability, T/C: 80.7%
[15]
  viability, T/C: 74.2%
[16]
  viability, T/C: 85.8%
[17]
  viability, T/C: 58.8%
Second compound 0.316 µM, first compound 0.000316 µM
  viability, T/C: 73.8%
Second compound 0.316 µM, first compound 0.001 µM
  viability, T/C: 93.5%
[18]
  viability, T/C: 83%
[19]
  viability, T/C: 49%
[20]
  viability, T/C: 68.7%
[21]
  viability, T/C: 72%
Second compound 1 µM, first compound 0.000316 µM
  viability, T/C: 82%
Second compound 1 µM, first compound 0.001 µM
  viability, T/C: 70.5%
[22]
  viability, T/C: 87.3%
[23]
  viability, T/C: 90%
[24]
  viability, T/C: 56.6%
[25]
  viability, T/C: 66.5%

## O=C(c1cc(Cc2n[nH]c(=O)c3ccccc23)ccc1F)N1CCN(C(=O)C2CC2)CC1 + CCN1C(C(=O)NC23CCC(C(=O)O)(CC2)CC3)C(c2cccc(Cl)c2F)C2(C(=O)Nc3cc(Cl)ccc32)C12CCCCC2
Curve of first compound, second compound 0.03 µM
  IC50: > 10000 nM
Curve of first compound, second compound 0.0949 µM
  IC50: > 10000 nM
Curve of first compound, second compound 0.3 µM
  IC50: > 10000 nM
Curve of first compound, second compound 0.949 µM
  IC50: > 10000 nM
Curve of first compound, second compound 3 µM
  IC50: > 10000 nM
Second compound 0.03 µM, first compound 0.0316 µM
  viability, T/C: 101%
Second compound 0.03 µM, first compound 0.1 µM
  viability, T/C: 113%
Second compound 0.03 µM, first compound 0.316 µM
  viability, T/C: 68.7%
Second compound 0.03 µM, first compound 1 µM
  viability, T/C: 91.9%
Second compound 0.03 µM, first compound 3.16 µM
  viability, T/C: 86.1%
Second compound 0.03 µM, first compound 10 µM
  viability, T/C: 63%
Second compound 0.0949 µM, first compound 0.0316 µM
  viability, T/C: 114%
Second compound 0.0949 µM, first compound 0.1 µM
  viability, T/C: 102%
Second compound 0.0949 µM, first compound 0.316 µM
  viability, T/C: 99%
Second compound 0.0949 µM, first compound 1 µM
  viability, T/C: 73.2%
Second compound 0.0949 µM, first compound 3.16 µM
  viability, T/C: 74.2%
Second compound 0.0949 µM, first compound 10 µM
  viability, T/C: 74.5%
Second compound 0.3 µM, first compound 0.0316 µM
  viability, T/C: 96.9%
Second compound 0.3 µM, first compound 0.1 µM
  viability, T/C: 131%
Second compound 0.3 µM, first compound 0.316 µM
  viability, T/C: 104%
Second compound 0.3 µM, first compound 1 µM
  viability, T/C: 87.2%
Second compound 0.3 µM, first compound 3.16 µM
  viability, T/C: 75.2%
Second compound 0.3 µM, first compound 10 µM
  viability, T/C: 66.8%
Second compound 0.949 µM, first compound 0.0316 µM
  viability, T/C: 123%
Second compound 0.949 µM, first compound 0.1 µM
  viability, T/C: 124%
Second compound 0.949 µM, first compound 0.316 µM
  viability, T/C: 113%
Second compound 0.949 µM, first compound 1 µM
  viability, T/C: 113%
Second compound 0.949 µM, first compound 3.16 µM
  viability, T/C: 93.3%
Second compound 0.949 µM, first compound 10 µM
  viability, T/C: 88.8%
Second compound 3 µM, first compound 0.0316 µM
  viability, T/C: 109%
Second compound 3 µM, first compound 0.1 µM
  viability, T/C: 137%
Second compound 3 µM, first compound 0.316 µM
  viability, T/C: 135%
Second compound 3 µM, first compound 1 µM
  viability, T/C: 126%
Second compound 3 µM, first compound 3.16 µM
  viability, T/C: 106%
Second compound 3 µM, first compound 10 µM
  viability, T/C: 98%
